Laboratory results as given in patent EP0419292A1, “Human tryptase-like protein” (TAISHO PHARMACEUTICAL CO. LTD, priority 1989, dated 1991).
“Also recorded” adds a separate entry of the source. Starred links: 1 amine or outer side, 2 acyl side, 3 side chain; linkers in the order of their positions; H or OH if unused. Non-standard residues stand in square brackets, D forms with d. Residues, ends and D or L forms follow the SMILES beside them. *: point of attachment. Sta = CC(C)C[C@H](N)[C@@H](O)CC(=O)O; Glutaryl = O=C(CCCC(=O)[*:2])[*:1]; AMC = Cc1cc(=O)oc2cc(N*)ccc12; Suc = O=C(CCC(=O)[*:2])[*:1]; Isovaleryl = CC(C)CC(=O)*; Boc = CC(C)(C)OC(=O)*

Tests used:
[1] = tested on: human tryptase-like protein; assay: Effects of inhibitors on the trypsin-like activity; format: biochemical; conditions: 10 µM inhibitor; for Inhibition (%) / Activity: substrate Boc-Gln-Gly-Arg-MCA; for Activity: control 843.1
Procedure: (§1) Enzyme activity of the human tryptase-like protein during the course of purification or after purification was measured as follows. The enzyme sample was added to 0.1 M Tris-HCl buffer (pH 7.8) containing 25 mM calcium chloride and 100 µM of fluorogenic substrate. The fluorescence was measured with excitation and emmision wavelength of 380 nm and 460 nm, respectively.
Effects of inhibitors on the trypsin-like activity of the human tryptase-like protein was examined using Boc-Gln-Gly-Arg-MCA as substrate.

[2] = tested on: human tryptase-like protein; assay: Enzyme activity with fluorogenic substrates (substrate specificity); format: biochemical; conditions: for Activity: Substrate 100 µM, 0.1 M Tris-HCl pH 7.8, 25 mM calcium chloride; for %: activity relative to Boc-Gln-Gly-Arg-MCA (100), substrate 100 µM; for hydrolysis by human tryptase-like protein: trypsin-like or chymotrypsin-like activity
Procedure: as §1, with “respectively. Effects of inhibitors on the enzyme activity were examined by adding 10 µM each of inhibitor to the reaction solution described above.” for “respectively.”

Molecule | Inhibition (%) [1] | Activity [1] | Activity [2] | % [2] | hydrolysis by human tryptase-like protein [2] | inhibition of trypsin-like activity [1]
CC(C)C[C@@H](N)[C@H](O)C(=O)N[C@H](C(=O)N[C@H](C(=O)N[C@@H](CC(=O)O)C(=O)O)C(C)C)C(C)C [Amastatin] | 9% | 767.2 µU/ml |  |  |  | 
N=C(N)c1ccccc1 [Benzamidine] | 3% | 817.8 µU/ml |  |  |  | 
CC(C)C[C@H](NC(=O)[C@@H](O)[C@H](N)Cc1ccccc1)C(=O)O [Bestatin] | 0% | 843.0 µU/ml |  |  |  | 
Cc1cc(=O)oc2cc(NC(=O)[C@H](CCCNC(=N)N)NC(=O)[C@@H]3CCCN3C(=O)CNC(=O)[C@H](C)NC(=O)OC(C)(C)C)ccc12 [Boc-Ala-Gly-Pro-Arg-MCA] (Boc-AGPR-{AMC}) |  |  | 199.7 µU/ml | 26% |  | 
Cc1cc(=O)oc2cc(NC(=O)[C@H](CCCNC(=N)N)NC(=O)[C@H](C)NC(=O)[C@H](CCC(N)=O)NC(=O)OC(C)(C)C)ccc12 [Boc-Gln-Ala-Arg-MCA] (Boc-Gln-Ala-Arg-{AMC}) |  |  | 532.4 µU/ml | 71% |  | 
Cc1cc(=O)oc2cc(NC(=O)[C@H](CCCNC(=N)N)NC(=O)[C@H](CCCNC(=N)N)NC(=O)[C@H](CCC(N)=O)NC(=O)OC(C)(C)C)ccc12 [Boc-Gln-Arg-Arg-MCA] (Boc-Gln-Arg-Arg-{AMC}) |  |  | 177.5 µU/ml | 24% |  | 
Cc1cc(=O)oc2cc(NC(=O)[C@H](CCCNC(=N)N)NC(=O)CNC(=O)[C@H](CCC(N)=O)NC(=O)OC(C)(C)C)ccc12 [Boc-Gln-Gly-Arg-MCA] (Boc-Gln-Gly-Arg-{AMC}) |  |  | 754.4 µU/ml | 100% | cleaves; also recorded: hydrolyzed most rapidly | 
Cc1cc(=O)oc2cc(NC(=O)[C@H](CCCCN)NC(=O)[C@H](CCCCN)NC(=O)[C@H](CCC(=O)O)NC(=O)OC(C)(C)C)ccc12 [Boc-Glu-Lys-Lys-MCA] (Boc-Glu-Lys-Lys-{AMC}) |  |  | 221.9 µU/ml | 29% |  | 
Cc1cc(=O)oc2cc(NC(=O)[C@H](CCCNC(=N)N)NC(=O)[C@H](CCCNC(=N)N)NC(=O)CNC(=O)OC(C)(C)C)ccc12 [Boc-Gly-Arg-Arg-MCA] |  |  | 44.4 µU/ml | 6% |  | 
Cc1cc(=O)oc2cc(NC(=O)[C@H](CCCNC(=N)N)NC(=O)[C@H](CCCCN)NC(=O)CNC(=O)OC(C)(C)C)ccc12 [Boc-Gly-Lys-Arg-MCA] (Boc-Gly-Lys-Arg-{AMC}) |  |  | 177.5 µU/ml | 24% |  | 
CC[C@H](C)[C@H](NC(=O)OC(C)(C)C)C(=O)N[C@@H](CCC(=O)O)C(=O)NCC(=O)N[C@@H](CCCNC(=N)N)C(=O)Nc1ccc2c(C)cc(=O)oc2c1 [Boc-Ile-Glu-Gly-Arg-MCA] (Boc-IEGR-{AMC}) |  |  | 355.0 µU/ml | 47% |  | 
Cc1cc(=O)oc2cc(NC(=O)[C@H](CCCNC(=N)N)NC(=O)[C@H](CCCNC(=N)N)NC(=O)[C@H](CC(C)C)NC(=O)OC(C)(C)C)ccc12 [Boc-Leu-Arg-Arg-MCA] (Boc-Leu-Arg-Arg-{AMC}) |  |  | 110.9 µU/ml | 15% |  | 
Cc1cc(=O)oc2cc(NC(=O)[C@H](CCCNC(=N)N)NC(=O)[C@@H](NC(=O)[C@H](CC(C)C)NC(=O)OC(C)(C)C)[C@@H](C)O)ccc12 [Boc-Leu-Thr-Arg-MCA] (Boc-Leu-Thr-Arg-{AMC}) |  |  | 110.9 µU/ml | 15% |  | 
Cc1cc(=O)oc2cc(NC(=O)[C@H](CCCNC(=N)N)NC(=O)[C@H](CO)NC(=O)[C@H](Cc3ccccc3)NC(=O)OC(C)(C)C)ccc12 [Boc-Phe-Ser-Arg-MCA] (Boc-Phe-Ser-Arg-{AMC}) |  |  | 177.5 µU/ml | 24% |  | 
Cc1cc(=O)oc2cc(NC(=O)[C@H](CCCNC(=N)N)NC(=O)[C@@H]3CCCN3C(=O)[C@@H](NC(=O)OC(C)(C)C)C(C)C)ccc12 [Boc-Val-Pro-Arg-MCA] (Boc-Val-Pro-Arg-{AMC}) |  |  | 66.6 µU/ml | 9% |  | 
CC(C)C[C@H](NC(=O)[C@@H](NC(=O)N[C@@H](Cc1ccccc1)C(=O)O)[C@@H]1CCN=C(N)N1)C(=O)N[C@H](C=O)Cc1ccccc1 [Chymostatin] | 47% | 443.8 µU/ml |  |  |  | inhibited
CC(C)CCNC(=O)[C@H](CC(C)C)NC(=O)[C@H]1O[C@@H]1C(=O)O [E-64c] | 11% | 754.4 µU/ml |  |  |  | 
CC(C)C[C@H](NC(=O)N[C@H](C(=O)N[C@@H](CCC(N)=O)C(=O)N[C@@H](C)C=O)[C@@H]1CCNC(=N)N1)C(=O)O [Elastatinal] | 16% | 710.0 µU/ml |  |  |  | 
Cc1cc(=O)oc2cc(NC(=O)[C@H](CCCNC(=N)N)NC(=O)CNC(=O)CCCC(=O)O)ccc12 [Glt-Gly-Arg-MCA] (Glutaryl-Gly-Arg-{AMC}) |  |  | 332.8 µU/ml | 44% |  | 
CC(=O)N[C@@H](CC(C)C)C(=O)N[C@@H](CC(C)C)C(=O)N[C@H](C=O)CCCNC(=N)N [Leupeptin] | 87% | 110.9 µU/ml |  |  |  | inhibited; also recorded: strongly inhibited
O=S(=O)(F)Cc1ccccc1 [PMSF, phenylmethylsulfonyl fluoride] | 13% | 732.2 µU/ml |  |  |  | 
CC(C)CC(=O)N[C@H](C(=O)N[C@H](C(=O)N[C@@H](CC(C)C)[C@@H](O)CC(=O)N[C@@H](C)C(=O)N[C@@H](CC(C)C)[C@@H](O)CC(=O)O)C(C)C)C(C)C [Pepstatin] (Isovaleryl-VV[Sta]A[Sta]-OH) | 0% | 845.0 µU/ml |  |  |  | 
CC(C)C[C@H](NP(=O)(O)O[C@@H]1O[C@@H](C)[C@H](O)[C@@H](O)[C@H]1O)C(=O)N[C@@H](Cc1c[nH]c2ccccc12)C(=O)O [Phosphoramidone] | 3% | 820.9 µU/ml |  |  |  | 
Cc1cc(=O)oc2cc(NC(=O)[C@H](CCCNC(=N)N)NC(=O)[C@H](Cc3ccccc3)NC(=O)[C@@H]3CCCN3)ccc12 [Pro-Phe-Arg-MCA] (H-Pro-Phe-Arg-{AMC}) |  |  | 155.3 µU/ml | 21% |  | 
Cc1cc(=O)oc2cc(NC(=O)[C@H](Cc3ccccc3)NC(=O)[C@@H]3CCCN3C(=O)[C@H](C)NC(=O)[C@H](C)NC(=O)CCC(=O)O)ccc12 [Suc-Ala-Ala-Pro-Phe-MCA] (Suc-AAPF-{AMC}) |  |  | 110.9 µU/ml | 15% |  | 
Cc1cc(=O)oc2cc(NC(=O)[C@H](Cc3ccc(O)cc3)NC(=O)[C@@H](NC(=O)[C@H](CC(C)C)NC(=O)[C@H](CC(C)C)NC(=O)CCC(=O)O)C(C)C)ccc12 [Suc-Leu-Leu-Val-Tyr-MCA] (Suc-LLVY-{AMC}) |  |  | 244.1 µU/ml | 32% | cleaves; also recorded: hydrolized most rapidly | 
Cc1ccc(S(=O)(=O)N[C@@H](CCCCN)C(=O)CCl)cc1 [TLCK, Nα-p-tosyl-L-lysine chloromethyl ketone] | 18% | 691.3 µU/ml |  |  |  | 
N-tosyl-L-phenylalanine chloromethyl ketone [TPCK] | 16% | 708.2 µU/ml |  |  |  | 
